In patent publication US6921532B1, “Biological Bioadhesive composition and methods of preparation and use” (Spinal Restoration, Inc., priority 2000, dated 2005):

Test: Solubility / suspension in thrombin reconstituting solution
Details: aqueous calcium chloride reconstituting solution
From the text: Blended betamethasone sodium phosphate and acetate solutions preferably include anti-caking agent(s) and low calcium chloride concentration(s).

C[C@H]1C[C@H]2[C@@H]3CCC4=CC(=O)C=C[C@]4(C)[C@@]3(F)[C@@H](O)C[C@]2(C)[C@@]1(O)C(=O)COP(=O)([O-])[O-].[Na+].[Na+] [betamethasone sodium phosphate]
solubility: reduced in the presence of aqueous calcium chloride
